Laboratory results reported in patent US20230026271A1, “Piperazine Compounds for Inhibiting CPS1” (Eisai R&D Management Co., Ltd., priority 2019, published 2023).

Biological target: T1, CPS1 (Homo sapiens, UniProt P31327)
T1 construct: The full length, human CPS1 gene was cloned into pFastBac HTA; His6 (from the pFastBac HTA vector); made in house; host or cells: SF21 insect cells (baculovirus, Bac-to-bac)
T1 sequence (P31327 39-1500): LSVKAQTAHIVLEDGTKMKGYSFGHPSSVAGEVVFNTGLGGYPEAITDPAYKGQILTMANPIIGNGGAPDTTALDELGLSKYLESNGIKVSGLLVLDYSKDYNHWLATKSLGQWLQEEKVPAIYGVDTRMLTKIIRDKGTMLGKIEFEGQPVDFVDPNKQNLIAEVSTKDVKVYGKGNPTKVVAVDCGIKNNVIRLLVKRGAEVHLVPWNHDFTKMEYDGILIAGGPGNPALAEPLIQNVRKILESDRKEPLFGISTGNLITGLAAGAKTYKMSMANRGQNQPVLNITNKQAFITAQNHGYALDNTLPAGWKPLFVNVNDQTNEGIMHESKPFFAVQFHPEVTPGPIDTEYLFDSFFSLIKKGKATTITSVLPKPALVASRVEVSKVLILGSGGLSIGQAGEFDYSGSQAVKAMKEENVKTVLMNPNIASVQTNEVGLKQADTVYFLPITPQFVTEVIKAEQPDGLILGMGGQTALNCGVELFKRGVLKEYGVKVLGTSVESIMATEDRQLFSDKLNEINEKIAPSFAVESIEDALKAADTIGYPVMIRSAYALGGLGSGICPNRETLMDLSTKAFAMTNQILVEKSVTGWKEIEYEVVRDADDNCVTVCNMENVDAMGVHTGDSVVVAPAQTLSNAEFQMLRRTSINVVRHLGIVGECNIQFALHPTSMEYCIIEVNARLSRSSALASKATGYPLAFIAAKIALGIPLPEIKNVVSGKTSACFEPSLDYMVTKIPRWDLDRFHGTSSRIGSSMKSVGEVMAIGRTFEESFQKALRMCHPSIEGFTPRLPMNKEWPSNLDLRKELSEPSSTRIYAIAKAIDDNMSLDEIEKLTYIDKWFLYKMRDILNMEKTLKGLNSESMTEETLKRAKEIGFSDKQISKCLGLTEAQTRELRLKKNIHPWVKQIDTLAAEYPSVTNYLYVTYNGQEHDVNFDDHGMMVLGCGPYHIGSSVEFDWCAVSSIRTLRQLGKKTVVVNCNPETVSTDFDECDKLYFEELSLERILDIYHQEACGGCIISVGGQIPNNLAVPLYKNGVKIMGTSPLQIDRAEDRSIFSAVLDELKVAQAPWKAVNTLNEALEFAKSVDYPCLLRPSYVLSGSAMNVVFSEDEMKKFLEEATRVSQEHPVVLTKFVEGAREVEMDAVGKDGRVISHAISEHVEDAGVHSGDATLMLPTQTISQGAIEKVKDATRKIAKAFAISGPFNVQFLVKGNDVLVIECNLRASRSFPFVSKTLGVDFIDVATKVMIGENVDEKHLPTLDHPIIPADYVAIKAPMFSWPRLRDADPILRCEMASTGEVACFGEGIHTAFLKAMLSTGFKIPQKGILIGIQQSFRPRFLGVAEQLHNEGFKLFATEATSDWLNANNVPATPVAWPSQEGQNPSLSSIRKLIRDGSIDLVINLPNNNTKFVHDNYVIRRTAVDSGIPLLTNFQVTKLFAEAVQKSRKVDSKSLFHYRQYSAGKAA
Assay: ADP-Glo endpoint assay measuring the ATPase activity of CPS1
Format: biochemical
Details: geometric mean of a minimum of two values; 50 nM CPS1, 10 μM ATP, 0.2 mM NAG, 60 min at room temperature; read-out: ADPGlo IC50
Experimental: CPS1 was expressed and purified from SF21 insect cells. The full length, human CPS1 gene was cloned into pFastBac HTA and baculovirus was generated using the Bac-to-bac expression system from Invitrogen. P3 virus was used to infect SF21 insect cells at a density of 1.5E6 cells/mL at an MOI of 2. Cells were harvested by centrifugation after 60 hrs and the cell pellet resuspended in lysis buffer (50 mM glycyl glycine pH 7.4, 20 mM KCl, 1 mM TCEP, 10% glycerol and 20 mM imidazole with Roche protease inhibitor tablet) before being lysed with 40 strokes of a Dounce homogenizer on ice. The insoluble fraction of the lysate was then cleared by centrifugation at 30,000 rpm for 30 min. 40 mL of supernatant was mixed with 2 mL of Ni NTA beads for 45 min at 4° C. in a 50 mL conical tube.
The beads were washed with 40 mL of wash buffer (50 mM glycyl glycine pH 7.4, 500 mM NaCl, 1 mM TCEP, 10% glycerol and 50 mM imidazole) by centrifugation and resuspension of the beads three times. Bound CPS1 protein was eluted in 6 mL of elution buffer (50 mM glycyl glycine pH 7.4, 500 mM NaCl, 1 mM TCEP, 10% glycerol and 250 mM imidazole) three times. Elution fractions were combined and concentrated using an Amicon Ultra centrifugation filter with a 10,000 molecular weight cut off. Imidazole was removed by repeated concentration and resuspension in storage buffer in the filter device (50 mM glycyl glycine pH 7.4, 500 mM NaCl, 1 mM TCEP and 20% glycerol). CPS1 was concentrated to a final concentration of ˜3 mg/mL before being aliquoted, flash frozen in liquid nitrogen and stored at −80° C.
CPS1 activity was measured and compounds profiled in an endpoint assay measuring the ATPase activity of CPS1 using the ADP-Glo kit from Promega. 50 nM CPS1 was incubated alone or with varying amounts of tested compound from DMSO stocks in assay buffer (50 mM HEPES pH 7.0, 12.5 mM KHCO3, 1.5 mM (NH4)2SO3, 5 mM MgCl2, 50 mM KCl, 1 mM TCEP, 0.01% TritonX 100, 0.0025% BSA and 0.2 mM NAG) for 20 min in a 3 μL volume in a 384-well plate (Corning Cat#3820). The final concentration of DMSO was 0.04%. The reaction was initiated by the addition of 10 μM ATP, bringing the final volume to 6 μL. After 60 min at room temperature, the reaction was terminated with 3 μL ADP-Glo reagent and incubated at room temperature for 30 min. 3 μL of kinase detection reagent was then added and luminescent signal measured on an Envision plate reader after 30 min.

## COc1ccc(C(=O)N2[C@H](C)CN(C(=O)c3ccc4c(c3)CCO4)C[C@H]2C)c(F)c1 [Compound 21, ((2R,6R)-4-(2,3-Dihydrobenzofuran-5-carbonyl)-2,6-dimethylpiperazin-1-yl)(2-fluoro-4-methoxyphenyl)methanone]
  IC50: 7450 nM

## COc1ccc(C(=O)N2C[C@@H](C)N(C(=O)c3ccc(C)cc3F)[C@H](C)C2)c(F)c1 [Compound 22, ((2R,6R)-4-(2-Fluoro-4-methoxybenzoyl)-2,6-dimethylpiperazin-1-yl)(2-fluoro-4-methylphenyl)methanone]
  IC50: 358 nM

## COc1ccc(C(=O)N2C[C@@H](C)N(C(=O)c3cc(F)c(OC)cc3F)[C@H](C)C2)c(F)c1 [Compound 23, ((3R,5R)-4-(2,5-Difluoro-4-methoxybenzoyl)-3,5-dimethylpiperazin-1-yl)(2-fluoro-4-methoxyphenyl)methanone]
  IC50: 1190 nM

## COc1ccc(C(=O)N2C[C@@H](C)N(C(=O)c3ccc(OCc4ccccc4)cc3F)[C@H](C)C2)c(F)c1 [Compound 24, ((3R,5R)-4-(4-(Benzyloxy)-2-fluorobenzoyl)-3,5-dimethylpiperazin-1-yl)(2-fluoro-4-methoxyphenyl)methanone]
  IC50: 995 nM

## COc1ccc(C(=O)N2C[C@@H](C)N(C(=O)c3c(F)cc(SC)cc3F)[C@H](C)C2)c(F)c1 [Compound 25, ((3R,5R)-4-(2,6-difluoro-4-(methylthio)benzoyl)-3,5-dimethylpiperazin-1-yl)(2-fluoro-4-methoxyphenyl)methanone]
  IC50: 255 nM

## COc1ccc(C(=O)N2C[C@@H](C)N(C(=O)c3ccc(OC)cc3F)[C@H](C)C2)c(F)c1 [Compound 26, ((2R,6R)-2,6-Dimethylpiperazine-1,4-diyl)bis((2-fluoro-4-methoxyphenyl)methanone)]
  IC50: 362 nM

## CCOc1ccc(C(=O)N2[C@H](C)CN(C(=O)c3ccc(OC)cc3F)C[C@H]2C)c(F)c1 [Compound 27, ((3R,5R)-4-(4-Ethoxy-2-fluorobenzoyl)-3,5-dimethylpiperazin-1-yl)(2-fluoro-4-methoxyphenyl)methanone]
  IC50: 414 nM

## COc1ccc(C(=O)N2C[C@@H](C)N(C(=O)c3c(C)cc(OC)cc3F)[C@H](C)C2)c(F)c1 [Compound 28, ((3R,5R)-4-(2-Fluoro-4-methoxy-6-methylbenzoyl)-3,5-dimethylpiperazin-1-yl)(2-fluoro-4-methoxyphenyl)methanone]
  IC50: 909 nM

## COc1ccc(C(=O)N2C[C@@H](C)N(C(=O)c3ccc(OC)c(F)c3)[C@H](C)C2)c(F)c1 [Compound 29, ((2R,6R)-4-(2-Fluoro-4-methoxybenzoyl)-2,6-dimethylpiperazin-1-yl)(3-fluoro-4-methoxyphenyl)methanone]
  IC50: 2300 nM

## COc1ccc(C(=O)N2C[C@@H](C)N(C(=O)c3ccc(OC(C)C)cc3F)[C@H](C)C2)c(F)c1 [Compound 30, ((3R,5R)-4-(2-fluoro-4-isopropoxybenzoyl)-3,5-dimethylpiperazin-1-yl)(2-fluoro-4-methoxyphenyl)methanone]
  IC50: 1470 nM

## COc1ccc(C(=O)N2C[C@@H](C)N(C(=O)c3ccc(OC(F)(F)F)cc3F)[C@H](C)C2)c(F)c1 [Compound 31, ((3R,5R)-4-(2-fluoro-4-(trifluoromethoxy)benzoyl)-3,5-dimethylpiperazin-1-yl)(2-fluoro-4-methoxyphenyl)methanone]
  IC50: 1190 nM

## COc1ccc(C(=O)N2C[C@@H](C)N(C(=O)c3ccc(F)cc3F)[C@H](C)C2)c(F)c1 [Compound 32, ((3R,5R)-4-(2,4-difluorobenzoyl)-3,5-dimethylpiperazin-1-yl)(2-fluoro-4-methoxyphenyl)methanone]
  IC50: 1440 nM

## COc1ccc(C(=O)N2C[C@@H](C)N(C(=O)c3ccc(OC(F)F)cc3F)[C@H](C)C2)c(F)c1 [Compound 33, ((3R,5R)-4-(4-(difluoromethoxy)-2-fluorobenzoyl)-3,5-dimethylpiperazin-1-yl)(2-fluoro-4-methoxyphenyl)methanone]
  IC50: 2540 nM

## COc1ccc(C(=O)N2C[C@@H](C)N(C(=O)c3ccc(OC)c(F)c3F)[C@H](C)C2)c(F)c1 [Compound 34, ((3R,5R)-4-(2,3-Difluoro-4-methoxybenzoyl)-3,5-dimethylpiperazin-1-yl)(2-fluoro-4-methoxyphenyl)methanone]
  IC50: 387 nM

## COc1ccc(C(=O)N2[C@H](C)CN(C(=O)c3ccc4c(c3)NC(=O)CO4)C[C@H]2C)c(F)c1 [Compound 35, 6-((3R,5R)-4-(2-Fluoro-4-methoxybenzoyl)-3,5-dimethylpiperazine-1-carbonyl)-2H-benzo[b][1,4]oxazin-3(4H)-one]
  IC50: 7970 nM

## COc1ccc(C(=O)N2[C@H](C)CN(C(=O)c3c[nH]c4c(Cl)cccc34)C[C@H]2C)c(F)c1 [Compound 36, (7-Chloro-1H-indol-3-yl)((3R,5R)-4-(2-fluoro-4-methoxybenzoyl)-3,5-dimethylpiperazin-1-yl)methanone]
  IC50: 1150 nM

## COc1ccc(C(=O)N2[C@H](C)CN(C(=O)c3cnc4cc[nH]c4c3)C[C@H]2C)c(F)c1 [Compound 37, ((2R,6R)-2,6-Dimethyl-4-(1H-pyrrolo[3,2-b]pyridine-6-carbonyl)piperazin-1-yl)(2-fluoro-4-methoxyphenyl)methanone]
  IC50: 2510 nM

## COc1ccc(C(=O)N2[C@H](C)CN(C(=O)c3ccc4nc[nH]c4c3)C[C@H]2C)c(F)c1 [Compound 38, ((2R,6R)-4-(1H-Benzo[d]imidazole-5-carbonyl)-2,6-dimethylpiperazin-1-yl)(2-fluoro-4-methoxyphenyl)methanone]
  IC50: 4910 nM

## COc1ccc(C(=O)N2C[C@@H](C)N(C(=O)c3ccc(-c4cnco4)cc3)[C@H](C)C2)c(F)c1 [Compound 39, ((3R,5R)-3,5-Dimethyl-4-(4-(oxazol-5-yl)benzoyl)piperazin-1-yl)(2-fluoro-4-methoxyphenyl)methanone]
  IC50: 3580 nM

## COc1ccc(C(=O)N2C[C@@H](C)N(C(=O)c3ccc(-c4ncc[nH]4)cc3)[C@H](C)C2)c(F)c1 [Compound 40, ((3R,5R)-4-(4-(1H-imidazol-2-yl)benzoyl)-3,5-dimethylpiperazin-1-yl)(2-fluoro-4-methoxyphenyl)methanone]
  IC50: 7530 nM
